Experimental data taken from patent US4014909A, “Esters of 21-thiol steroids” (priority 1974, dated 1977).
Where two headings read alike, the source gives them in different places.

Assays:
[1] = test system: thymus; type: in vivo, rat (Wistar, young male)
Experimental: The thymolytic effects have been examined by means of a test, the principle of which is as follows:
The repeated administration of a gluco-corticoid having a systemic activity causes an involution of the defence system of the organism, of which two organs belong to the reticulo-endothelial system, the spleen and the thymus, this latter being the most sensitive to this action, especially with young animals. The thymic involution is estimated by weighing.
The various products were injected daily by the oral or the sub-cutaneous route for four days, to young male rats of Wistar-strain, the initial weight of which was between 45 and 55 grams, distributed at random by groups of ten.
The products under study were administered at a volume of 0.2 ml. per animal for both methods, in suspension in:
Carboxy-methyl-cellulose at 5 % for sub-cutaneous injection;
Gum arabic at 5 % for the oral route.
The animals of the reference groups received the same volume of the corresponding vehicle.
Ninety-six hours after the first administration, the animals were killed, the thymus glands being taken and weighed immediately.
(§1) For each animal, the weight of the thymus has been brought to 100 grams of body weight. The thymolytic activity of the products under study was then expressed as a percentage of regression of the thymus with respect to the animals of the reference group and the ED50 of each product tested was estimated by transferring the percentage inhibition obtained for each dose on semi-logarithmic paper.

[2] = test system: granuloma; test: Anti-proliferative (anti-granulomatous) activity, cotton pellet granuloma; type: in vivo, rat (Wistar, male); settings: rat, cotton pellet impregnated with product, 6 days
From the text: The experimental local anti-inflammatory activity of the compounds presented was estimated in rats by their anti-proliferative (anti-granulomatous) action, and for certain of these, by their anti-arthritic activity and their antiexudative activity.
The anti-proliferative (anti-granulomatous) activity has been brought into evidence by means of a test, the principle of which is as follows.
The introduction of a foreign body into an organism produces a set of inflammatory reactions which results, in the chromic stage, in the formation of a defence granuloma around the foreign body. The proliferation of this granuloma is eliminated or attenuated by anti-inflammatory agents.
The technique employed is very similar to that described by Winter and Porter (J. Am. Pharm. Ass. 46/9. 515) 1957 with rats.
Homogeneous groups of 6 male adult rats of the Wistar Strain were used, distributed at random and having weights comprised between 180 and 200 grams.
The implants or pellets were prepared from rolls of dental cotton; the weight of the pellets was between 35 and 40 mg.
The products to be tested were dissolved in dimethylsulphoxide (DMSO) and the solutions obtained, deposited on the pellets at a volume of 0.2 ml per pellet. The DMSO was then evaporated under high vacuum at ambient temperature, the complete elimination of the solvent being checked by weighing the pellets. "Reference" pellets, soaked with the solvent alone, were treated in the same manner.
Immediately before their introduction, the pellets were soaked with an antibiotic solution (0.1 ml. of a solution of penicillin G and streptomycin containing 200,000 of penicillin G and 0.1 gram of streptomycin sulphate per cc.).
Each animal received two pellets in the sub-cutaneous dorsal tissue on each side of the spinal column, at the costo-lumbar angle, under light anaesthesia with ether. The day of the operation and for three days after, the animals received by sub-cutaneous injection, 0.1 ml. of the antibiotic solution in the caudal region.
Six days after the introduction, the animals were killed by inhalation of chloroform and the granulomae were extracted and weighed, (fresh weight), and then the initial weights of the cotton pellets were subtracted from the total weight.
Certain non-sulphured steroids causing a large increase in protein catabolism which can influence the formation of the granuloma independently of their anti-inflammatory action, the weights of the granulomae were expressed as a percentage of the body weight (technique proposed by G. Dipasquale and A. Meli: J. Pharm. Pharmacol. (1965), 17,367-382) and the anti-proliferative effect of the various compounds as a percentage inhibition with respect to the reference granulomae. The DE50 were calculated by transferring the results on to semi-logarithmic paper.

[3] = test system: granuloma / thymus; test: Ratio of the local anti-inflammatory activity to the thymolytic activity; type: in vivo, rat (Wistar); settings: for ED50 anti-proliferative activity / ED50 thymolytic activity (sub-cutaneous route): thymolytic activity determined by sub-cutaneous route; for ED50 anti-proliferative activity / ED50 thymolytic activity (oral route): thymolytic activity determined by the oral route
Experimental: The DE50 were calculated by transferring the results on to semi-logarithmic paper.
as §1
The ratio is indicated in Tables VII, VIII and IX which follow: […]

[4] = cited from earlier work
[5] = oral, total dose administered during four days per rat of about 50 g
[6] = sub-cutaneous, total dose administered during four days per rat of about 50 g

CC(=O)OCC(=O)[C@@]1(O)CC[C@H]2[C@@H]3CCC4=CC(=O)C=C[C@]4(C)[C@H]3[C@@H](O)C[C@@]21C [Prednisolone (acetate), reference compound]
ED50 thymolytic activity, oral route [1, 5]: 0.64 mg
ED50 thymolytic activity, sub-cutaneous route [1, 6]: 0.23 mg
ED50 anti-proliferative activity [2]: 2 mg/pellet

C[C@@H]1C[C@H]2[C@@H]3CCC4=CC(=O)C=C[C@]4(C)[C@@]3(F)[C@@H](O)C[C@]2(C)[C@@]1(O)C(=O)CSC(=O)C(C)(C)C [JO 1008, Dihydroxy-11β, 17α thiol-21 dioxo-3,20 fluoro-9α methyl-16α pregnadiene-1,4-21-pivalate]
ED50 thymolytic activity, sub-cutaneous route ([1]; rat, in vivo, 5760 min): 0.8 mg
ED50 anti-proliferative activity [2]: 1 mg/pellet
ED50 anti-proliferative activity / ED50 thymolytic activity (sub-cutaneous route) [3]: 1.25

C[C@]12C=CC(=O)C=C1CC[C@@H]1[C@@H]2[C@@H](O)C[C@@]2(C)[C@H]1CC[C@]2(O)C(=O)CSC(=O)c1ccc(F)cc1 [JO 1014, Thiol-21 dioxo-3,20 pregnadiene-1,4-21 p. fluorobenzoate]
ED50 thymolytic activity, sub-cutaneous route ([1]; rat, in vivo, 5760 min): > 40 mg
ED50 thymolytic activity, oral route ([1]; rat, in vivo, po, 5760 min): 40 mg
ED50 anti-proliferative activity [2]: 0.5 mg/pellet
ED50 anti-proliferative activity / ED50 thymolytic activity (sub-cutaneous route) [3]: 0.0125
ED50 anti-proliferative activity / ED50 thymolytic activity (oral route) [3]: 0,012

CCC(=O)SCC(=O)[C@@]1(O)CC[C@H]2[C@@H]3CCC4=CC(=O)C=C[C@]4(C)[C@H]3[C@@H](O)C[C@@]21C [21-thio propionate of prednisolone]
Adreno-corticoid activity ([4]; U.S. Pat. No. 2,814,632): possessing an adreno-corticoid activity
Diuretic activity ([4]; U.S. Pat. No. 2,814,632): considerable diuretic activity

C[C@@H]1C[C@H]2[C@@H]3CCC4=CC(=O)C=C[C@]4(C)[C@@]3(F)[C@@H](O)C[C@]2(C)[C@@]1(O)C(=O)CSC(=O)c1ccc(F)cc1 [JO 1013, Dihydroxy-11β, 17α thiol-21 dioxo-3,20 fluoro-9α methyl-16α pregnadiene-1,4-21 p. fluoro benzoate]
ED50 thymolytic activity, sub-cutaneous route ([1]; rat, in vivo, 5760 min): 0.8 mg
ED50 anti-proliferative activity [2]: 0.5 mg/pellet
ED50 anti-proliferative activity / ED50 thymolytic activity (sub-cutaneous route) [3]: 0.625

CC(C)(C)C(=O)SCC(=O)[C@@]1(O)CC[C@H]2[C@@H]3CCC4=CC(=O)C=C[C@]4(C)[C@H]3[C@@H](O)C[C@@]21C [JO 1007, Dihydroxy-11β, 17αThiol 21 Dioxo-3,20 Pregnadiene-1,4 -21 Pivalate]
ED50 thymolytic activity, sub-cutaneous route ([1]; rat, in vivo, 5760 min): 30.4 mg
ED50 thymolytic activity, oral route ([1]; rat, in vivo, po, 5760 min): 9.6 mg
ED50 anti-proliferative activity [2]: 0,44 mg/pellet
ED50 anti-proliferative activity / ED50 thymolytic activity (sub-cutaneous route) [3]: 0.014
ED50 anti-proliferative activity / ED50 thymolytic activity (oral route) [3]: 0.046

CC(=O)SCC(=O)[C@@]1(O)[C@H](C)C[C@H]2[C@@H]3CCC4=CC(=O)C=C[C@]4(C)[C@@]3(F)[C@@H](O)C[C@@]21C [21-thio-acetate of dexamethasone]
Anti-inflammatory action ([4]; French Pat. No. 1187 M): anti-inflammatory product with a local action and a systemic action

CC(=O)OCC(=O)[C@@]1(O)[C@H](C)C[C@H]2[C@@H]3CCC4=CC(=O)C=C[C@]4(C)[C@@]3(F)[C@@H](O)C[C@@]21C [Dexamethasone (acetate), Dexamethasone acetate, reference compound]
ED50 thymolytic activity, sub-cutaneous route ([1]; rat, in vivo, 5760 min): 0.009 mg
ED50 thymolytic activity, oral route ([1]; rat, in vivo, po, 5760 min): 0.01 mg
ED50 anti-proliferative activity [2]: 0.4 mg/pellet
ED50 anti-proliferative activity / ED50 thymolytic activity (sub-cutaneous route) [3]: 40
ED50 anti-proliferative activity / ED50 thymolytic activity (oral route) [3]: 40

CC(=O)SCC(=O)[C@@]1(O)CC[C@H]2[C@@H]3CCC4=CC(=O)CC[C@]4(C)[C@H]3[C@@H](O)C[C@@]21C [21-thio-acetate of hydrocortisone]
Biological activity ([4]; J. Org. Chem. 26,1233, 1961): free of all interesting biological activity

CCCCCCC(=O)SCC(=O)[C@@]1(O)[C@H](C)C[C@H]2[C@@H]3CCC4=CC(=O)C=C[C@]4(C)[C@@]3(F)[C@@H](O)C[C@@]21C [JO 1010, Dihydroxy611β, 17α thiol-21 dioxo-3,20 fluoro-9α methyl-16α pregnadiene-1,4-21 heptanoate]
ED50 thymolytic activity, sub-cutaneous route ([1]; rat, in vivo, 5760 min): 0.4 mg
ED50 anti-proliferative activity [2]: 0,5 mg/pellet
ED50 anti-proliferative activity / ED50 thymolytic activity (sub-cutaneous route) [3]: 1.25

C[C@]12C=CC(=O)C=C1CC[C@@H]1[C@@H]2[C@@H](O)C[C@@]2(C)[C@H]1CC[C@]2(O)C(=O)CO [Prednisolone (base), Prednisolone, reference compound]
ED50 thymolytic activity, oral route [1, 5]: 0.34 mg
ED50 thymolytic activity, sub-cutaneous route [1, 6]: 0.84 mg
ED50 anti-proliferative activity [2]: 4 mg/pellet
ED50 anti-proliferative activity / ED50 thymolytic activity (sub-cutaneous route) [3]: 5
ED50 anti-proliferative activity / ED50 thymolytic activity (oral route) [3]: 12.5

C[C@@H]1C[C@H]2[C@@H]3CCC4=CC(=O)C=C[C@]4(C)[C@@]3(F)[C@@H](O)C[C@]2(C)[C@@]1(O)C(=O)CO [Dexamethasone (base), Dexamethasone, reference compound]
ED50 thymolytic activity, sub-cutaneous route ([1]; rat, in vivo, 5760 min): 10.02 mg
ED50 thymolytic activity, oral route ([1]; rat, in vivo, po, 5760 min): 0.013 mg
ED50 anti-proliferative activity [2]: 1 mg/pellet
ED50 anti-proliferative activity / ED50 thymolytic activity (sub-cutaneous route) [3]: 50
ED50 anti-proliferative activity / ED50 thymolytic activity (oral route) [3]: 80

CCCCCCC(=O)SCC(=O)[C@@]1(O)CC[C@H]2[C@@H]3CCC4=CC(=O)C=C[C@]4(C)[C@H]3[C@@H](O)C[C@@]21C [JO 1009, Dihydroxy-11β, 17αthiol-21 dioxo-3,20 pregnadiene-1,4-21 heptanoate]
ED50 thymolytic activity, sub-cutaneous route ([1]; rat, in vivo, 5760 min): 8 mg
ED50 anti-proliferative activity [2]: 0.5 mg/pellet
ED50 anti-proliferative activity / ED50 thymolytic activity (sub-cutaneous route) [3]: 0.0625

C[C@]12CCC(=O)C=C1CC[C@@H]1[C@@H]2[C@@H](O)C[C@@]2(C)[C@H]1CC[C@]2(O)C(=O)CSC(=O)c1ccc(F)cc1 [JO 1026, Dihydroxy-11β, 17α thiol-21 dioxo-3,20 pregnene-4-21 p. fluoro-benzoate]
ED50 thymolytic activity, sub-cutaneous route ([1]; rat, in vivo, 5760 min): > 40 mg
ED50 thymolytic activity, oral route ([1]; rat, in vivo, po, 5760 min): > 40 mg
ED50 anti-proliferative activity [2]: 0.4 mg/pellet
ED50 anti-proliferative activity / ED50 thymolytic activity (sub-cutaneous route) [3]: < 0.01
ED50 anti-proliferative activity / ED50 thymolytic activity (oral route) [3]: < 0.01

C[C@]12CCC(=O)C=C1CC[C@@H]1[C@@H]2[C@@H](O)C[C@@]2(C)[C@H]1CC[C@]2(O)C(=O)CO [Hydrocortisone (base), Hydrocortisone, reference compound]
ED50 thymolytic activity, sub-cutaneous route ([1]; rat, in vivo, 5760 min): 1.8 mg
ED50 thymolytic activity, oral route ([1]; rat, in vivo, po, 5760 min): 4 mg
ED50 anti-proliferative activity [2]: 10 mg/pellet
ED50 anti-proliferative activity / ED50 thymolytic activity (sub-cutaneous route) [3]: 5.5
ED50 anti-proliferative activity / ED50 thymolytic activity (oral route) [3]: 2.5
